# What was measured:
# DNAJB11 [1] = target: T1, DNAJB11 (Homo sapiens, UniProt Q9UBS4); assay: TPP-TR in HAZV-infected SW13 cells
# T1 sequence (Q9UBS4 23-358): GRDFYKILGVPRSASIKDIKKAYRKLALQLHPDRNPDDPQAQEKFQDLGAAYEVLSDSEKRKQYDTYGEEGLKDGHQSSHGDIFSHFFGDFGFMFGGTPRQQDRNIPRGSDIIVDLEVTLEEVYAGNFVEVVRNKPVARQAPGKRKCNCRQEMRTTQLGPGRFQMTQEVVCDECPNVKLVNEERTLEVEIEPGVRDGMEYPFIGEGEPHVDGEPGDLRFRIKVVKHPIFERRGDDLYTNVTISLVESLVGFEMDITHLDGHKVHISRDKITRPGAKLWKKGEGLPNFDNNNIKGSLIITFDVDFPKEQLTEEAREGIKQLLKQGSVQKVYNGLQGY
# OGG1 = OGG1 (Homo sapiens, UniProt O15527); assay: In vitro OGG1 activity assay; type: biochemical
# OGG1, sequence (O15527 whole entry): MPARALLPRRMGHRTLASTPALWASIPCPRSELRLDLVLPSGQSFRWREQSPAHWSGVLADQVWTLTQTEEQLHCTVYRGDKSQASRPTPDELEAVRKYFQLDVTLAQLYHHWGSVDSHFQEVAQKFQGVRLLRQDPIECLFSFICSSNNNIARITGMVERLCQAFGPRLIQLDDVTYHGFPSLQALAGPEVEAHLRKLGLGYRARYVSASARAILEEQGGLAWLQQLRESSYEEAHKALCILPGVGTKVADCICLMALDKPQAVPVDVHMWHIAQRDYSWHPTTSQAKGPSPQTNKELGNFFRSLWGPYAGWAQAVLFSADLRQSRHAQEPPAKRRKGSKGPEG
# HSPA1A [2] = target: T2, HSPA1A (Homo sapiens, UniProt P0DMV8); assay: 2D-TPP in U87 cells
# T2 sequence (P0DMV8 whole entry): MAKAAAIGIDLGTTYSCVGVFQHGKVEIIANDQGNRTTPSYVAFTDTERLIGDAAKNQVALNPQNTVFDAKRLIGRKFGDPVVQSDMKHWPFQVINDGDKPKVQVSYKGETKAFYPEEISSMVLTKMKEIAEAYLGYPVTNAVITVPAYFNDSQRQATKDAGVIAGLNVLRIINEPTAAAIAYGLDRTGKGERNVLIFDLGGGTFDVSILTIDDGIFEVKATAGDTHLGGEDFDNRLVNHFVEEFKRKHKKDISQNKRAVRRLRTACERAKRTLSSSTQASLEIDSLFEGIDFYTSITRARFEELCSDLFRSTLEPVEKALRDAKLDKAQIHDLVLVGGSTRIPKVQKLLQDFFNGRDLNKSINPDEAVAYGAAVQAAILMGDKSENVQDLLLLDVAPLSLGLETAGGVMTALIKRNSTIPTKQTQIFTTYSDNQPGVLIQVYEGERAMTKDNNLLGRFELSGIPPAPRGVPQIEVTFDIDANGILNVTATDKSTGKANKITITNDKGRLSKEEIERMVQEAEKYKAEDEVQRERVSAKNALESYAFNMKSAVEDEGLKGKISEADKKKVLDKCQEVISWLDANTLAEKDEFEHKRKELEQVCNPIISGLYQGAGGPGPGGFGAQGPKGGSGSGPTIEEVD
# DNAJB11 [3] = target: T1, DNAJB11; assay: 2D-TPP in U87 cells
# HSPA1A [4] = target: T2, HSPA1A; assay: TPP-TR in HAZV-infected SW13 cells; conditions: 20 μM, 4 h
# [5] = target: T3, host proteins (proteome-wide) (Homo sapiens, UniProt A0FGR8); assay: 2D-TPP in U87 cells (proteome-wide); type: binding
# T3 sequence (A0FGR8 1-921): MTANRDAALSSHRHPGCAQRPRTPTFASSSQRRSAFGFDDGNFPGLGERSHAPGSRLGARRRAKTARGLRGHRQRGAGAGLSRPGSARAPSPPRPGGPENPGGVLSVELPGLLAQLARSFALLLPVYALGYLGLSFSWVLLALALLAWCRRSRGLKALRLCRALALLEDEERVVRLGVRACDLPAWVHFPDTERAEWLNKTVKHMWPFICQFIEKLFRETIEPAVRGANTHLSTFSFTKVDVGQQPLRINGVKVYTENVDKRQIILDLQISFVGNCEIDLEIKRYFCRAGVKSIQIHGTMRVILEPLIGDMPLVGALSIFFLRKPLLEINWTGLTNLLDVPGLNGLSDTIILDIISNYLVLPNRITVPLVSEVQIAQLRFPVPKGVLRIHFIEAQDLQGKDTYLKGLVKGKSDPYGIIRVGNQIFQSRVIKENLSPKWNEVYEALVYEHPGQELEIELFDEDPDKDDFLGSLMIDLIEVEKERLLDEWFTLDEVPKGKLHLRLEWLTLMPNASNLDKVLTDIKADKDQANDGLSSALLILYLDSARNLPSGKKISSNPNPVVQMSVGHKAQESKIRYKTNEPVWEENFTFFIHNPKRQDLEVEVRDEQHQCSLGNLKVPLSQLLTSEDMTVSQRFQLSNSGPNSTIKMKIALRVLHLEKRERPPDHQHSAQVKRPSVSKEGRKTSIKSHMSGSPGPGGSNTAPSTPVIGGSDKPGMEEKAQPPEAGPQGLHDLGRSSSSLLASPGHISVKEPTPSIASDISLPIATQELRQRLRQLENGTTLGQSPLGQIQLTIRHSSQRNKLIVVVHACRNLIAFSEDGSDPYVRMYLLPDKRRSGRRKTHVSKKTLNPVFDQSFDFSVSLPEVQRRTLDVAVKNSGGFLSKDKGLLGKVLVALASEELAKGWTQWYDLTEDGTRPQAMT
# [6] = system: host proteins (proteome-wide); assay: 2D-TPP in U87 cells (proteome-wide); type: binding, Homo sapiens; conditions: protein A0A087WUL8 (NBPF19¦NBPF26¦NBPF1¦NBPF20¦NBPF8¦NBPF12¦NBPF14)
# Hsp70 = target: T4, Hsp70 (Homo sapiens, UniProt P0DMV8); assay: Cellular thermal shift assay; type: binding; conditions: U87 and SW13 cells, 56 and 59 °C, CETSA-TR at 20 μM and dose dependently
# T4 construct: endogenous in cells; host or cells: U87 or SW13 cells
# T4 sequence (P0DMV8 whole entry): as the sequence (P0DMV8 whole entry) above
# EDEM3 [7] = target: T5, EDEM3 (Homo sapiens, UniProt Q9BZQ6); assay: 2D-TPP in U87 cells; type: binding; design: endogenous in cells; host or cells: U87 cells; conditions: 1.5 h, stabilized, read-out: pEC50 of protein stabilization, EDEM3 (converted)
# T5 sequence (Q9BZQ6 42-932): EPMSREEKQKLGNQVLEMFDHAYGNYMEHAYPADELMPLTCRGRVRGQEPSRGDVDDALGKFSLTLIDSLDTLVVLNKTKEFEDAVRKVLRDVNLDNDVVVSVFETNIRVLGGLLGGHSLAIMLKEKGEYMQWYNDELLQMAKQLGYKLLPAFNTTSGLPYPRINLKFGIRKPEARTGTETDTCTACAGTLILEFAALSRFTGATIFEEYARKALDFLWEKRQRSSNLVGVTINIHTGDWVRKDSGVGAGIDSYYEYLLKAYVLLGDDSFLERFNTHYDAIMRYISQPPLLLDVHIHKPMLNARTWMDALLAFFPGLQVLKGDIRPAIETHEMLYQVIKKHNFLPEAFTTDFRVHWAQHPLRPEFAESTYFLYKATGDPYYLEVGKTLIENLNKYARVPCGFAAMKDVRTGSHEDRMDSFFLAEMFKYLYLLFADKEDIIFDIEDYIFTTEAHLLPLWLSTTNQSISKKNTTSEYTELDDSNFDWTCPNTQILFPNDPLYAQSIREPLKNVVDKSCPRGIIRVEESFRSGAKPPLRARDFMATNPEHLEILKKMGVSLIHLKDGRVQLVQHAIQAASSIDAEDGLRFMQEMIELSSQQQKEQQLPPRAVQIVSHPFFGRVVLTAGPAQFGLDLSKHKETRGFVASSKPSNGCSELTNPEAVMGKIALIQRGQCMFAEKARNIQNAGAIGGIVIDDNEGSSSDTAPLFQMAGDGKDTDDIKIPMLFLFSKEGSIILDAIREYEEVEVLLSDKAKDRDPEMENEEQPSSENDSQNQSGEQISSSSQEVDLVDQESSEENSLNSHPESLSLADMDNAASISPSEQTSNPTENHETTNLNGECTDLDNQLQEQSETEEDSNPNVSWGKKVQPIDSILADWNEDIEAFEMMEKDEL
# DNAJC13 = target: T6, DNAJC13 (Homo sapiens, UniProt O75165); assay: 2D-TPP in U87 cells; type: binding; conditions: 1.5 h, stabilized, read-out: pEC50 of protein stabilization, DNAJC13 (converted)
# T6 construct: endogenous in cells; host or cells: U87 cells
# T6 sequence (O75165 whole entry): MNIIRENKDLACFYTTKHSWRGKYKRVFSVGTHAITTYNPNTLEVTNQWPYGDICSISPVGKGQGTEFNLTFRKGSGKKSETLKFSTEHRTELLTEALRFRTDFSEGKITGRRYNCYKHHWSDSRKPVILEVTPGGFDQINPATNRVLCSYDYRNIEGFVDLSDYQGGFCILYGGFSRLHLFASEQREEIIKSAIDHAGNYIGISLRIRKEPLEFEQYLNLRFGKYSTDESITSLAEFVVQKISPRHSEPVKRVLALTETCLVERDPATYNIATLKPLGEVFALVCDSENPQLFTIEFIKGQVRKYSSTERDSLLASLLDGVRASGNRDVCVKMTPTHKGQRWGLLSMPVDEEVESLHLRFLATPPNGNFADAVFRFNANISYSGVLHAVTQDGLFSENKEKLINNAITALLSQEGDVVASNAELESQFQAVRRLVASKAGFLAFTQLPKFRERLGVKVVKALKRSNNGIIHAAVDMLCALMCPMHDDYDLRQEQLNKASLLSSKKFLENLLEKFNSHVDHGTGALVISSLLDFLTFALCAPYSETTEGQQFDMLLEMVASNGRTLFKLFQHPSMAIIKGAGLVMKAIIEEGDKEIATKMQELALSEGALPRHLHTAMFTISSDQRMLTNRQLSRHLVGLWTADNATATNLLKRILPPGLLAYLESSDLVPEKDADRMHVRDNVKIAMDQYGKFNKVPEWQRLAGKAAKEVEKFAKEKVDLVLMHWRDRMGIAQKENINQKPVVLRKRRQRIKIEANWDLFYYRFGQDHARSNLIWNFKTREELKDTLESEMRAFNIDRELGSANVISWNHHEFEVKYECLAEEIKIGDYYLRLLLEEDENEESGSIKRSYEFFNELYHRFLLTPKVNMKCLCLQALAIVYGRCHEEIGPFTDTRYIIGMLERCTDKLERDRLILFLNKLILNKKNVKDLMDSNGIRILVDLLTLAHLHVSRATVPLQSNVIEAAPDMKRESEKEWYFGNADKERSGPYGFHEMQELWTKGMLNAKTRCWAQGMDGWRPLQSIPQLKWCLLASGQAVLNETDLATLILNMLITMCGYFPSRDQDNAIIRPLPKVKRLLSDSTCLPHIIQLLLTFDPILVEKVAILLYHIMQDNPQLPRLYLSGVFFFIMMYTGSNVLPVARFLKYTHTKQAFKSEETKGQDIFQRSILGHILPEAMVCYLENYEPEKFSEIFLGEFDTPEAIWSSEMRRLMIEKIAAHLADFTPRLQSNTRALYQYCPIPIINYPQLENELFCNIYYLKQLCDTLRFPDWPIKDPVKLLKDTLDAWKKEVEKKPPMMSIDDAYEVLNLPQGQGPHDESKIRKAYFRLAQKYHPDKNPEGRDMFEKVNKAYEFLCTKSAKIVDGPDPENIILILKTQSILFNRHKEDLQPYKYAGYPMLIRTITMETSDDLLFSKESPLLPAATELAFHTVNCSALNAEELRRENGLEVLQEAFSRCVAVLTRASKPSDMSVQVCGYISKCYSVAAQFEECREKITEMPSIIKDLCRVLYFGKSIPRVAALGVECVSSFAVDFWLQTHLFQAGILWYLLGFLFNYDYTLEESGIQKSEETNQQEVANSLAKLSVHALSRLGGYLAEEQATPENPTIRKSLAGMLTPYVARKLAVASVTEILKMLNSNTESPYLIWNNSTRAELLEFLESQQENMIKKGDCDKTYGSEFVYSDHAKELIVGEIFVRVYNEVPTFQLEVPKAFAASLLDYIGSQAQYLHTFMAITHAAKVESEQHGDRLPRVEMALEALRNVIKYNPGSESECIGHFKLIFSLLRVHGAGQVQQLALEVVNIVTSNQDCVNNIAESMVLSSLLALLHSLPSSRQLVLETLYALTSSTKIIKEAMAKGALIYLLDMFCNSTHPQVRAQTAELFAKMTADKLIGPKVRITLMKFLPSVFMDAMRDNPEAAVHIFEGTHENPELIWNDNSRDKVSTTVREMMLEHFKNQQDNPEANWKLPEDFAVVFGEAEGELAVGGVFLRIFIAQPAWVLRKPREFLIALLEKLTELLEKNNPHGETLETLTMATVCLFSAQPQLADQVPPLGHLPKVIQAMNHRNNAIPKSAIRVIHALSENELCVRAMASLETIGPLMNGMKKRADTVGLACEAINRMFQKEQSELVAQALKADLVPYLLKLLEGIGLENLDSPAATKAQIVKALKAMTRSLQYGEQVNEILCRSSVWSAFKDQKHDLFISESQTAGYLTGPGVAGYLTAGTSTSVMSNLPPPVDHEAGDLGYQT
# Hazara virus (HAZV) = assay: microbe, parasite or virus in culture; type: cell-based; conditions: SW13, 24 h
# EDEM3 [8] = target: T5, EDEM3; assay: TPP-TR in HAZV-infected SW13 cells; conditions: 20 μM, 4 h
compound,measurement,setting,value
"CCOC(=O)c1cnn(-c2cccc3c2[nH]c(=O)n3C2CCN(C(=O)Nc3ccc(I)cc3)CC2)c1 [TH6744, ethyl 1-(1-(1-((4-iodophenyl)carbamoyl)piperidin-4-yl)-2-oxo-2,3-dihydro-1H-benzo[d]imidazol-4-yl)-1H-pyrazole-4-carboxylate]",thermal stability change of DNAJB11,"DNAJB11 [1]; 20 μM, 4 h",stabilized
same,ΔTm at 20 µM,DNAJB11 [1]; read-out: ΔTm of DNAJB11,13.6 °C
same,IC50,OGG1,0.68 µM
same,OGG1 activity (in words),OGG1; Figure 3A,Nanomolar OGG1activity
same,EC50,HSPA1A [2],3.16 µM
same,EC50,DNAJB11 [3],7.94 µM
same,thermal stability change of HSPA1A,HSPA1A [4],destabilized
same,pec50,"[5]; protein A0FGR8 (ESYT2), temperature 54, Set2",5.517
same,norm_rel_fc_protein_1_unmodified,"[5]; protein A0FGR8 (ESYT2), temperature 54, dose 1, Set2",0.9139
same,norm_rel_fc_protein_3_unmodified,"[5]; protein A0FGR8 (ESYT2), temperature 54, dose 3, Set2",0.7618
same,norm_rel_fc_protein_10_unmodified,"[5]; protein A0FGR8 (ESYT2), temperature 54, dose 10, Set2",0.587
same,norm_rel_fc_protein_30_unmodified,"[5]; protein A0FGR8 (ESYT2), temperature 54, dose 30, Set2",0.5111
same,pec50,"[5]; protein A0FGR8 (ESYT2), temperature 57, Set2",5.71
same,norm_rel_fc_protein_1_unmodified,"[5]; protein A0FGR8 (ESYT2), temperature 57, dose 1, Set2",0.8819
same,norm_rel_fc_protein_3_unmodified,"[5]; protein A0FGR8 (ESYT2), temperature 57, dose 3, Set2",0.7127
same,norm_rel_fc_protein_10_unmodified,"[5]; protein A0FGR8 (ESYT2), temperature 57, dose 10, Set2",0.531
same,norm_rel_fc_protein_30_unmodified,"[5]; protein A0FGR8 (ESYT2), temperature 57, dose 30, Set2",0.5493
same,pec50,"[5]; protein A0FGR8-2 (ESYT2), temperature 54, Set2",5.517
same,norm_rel_fc_protein_1_unmodified,"[5]; protein A0FGR8-2 (ESYT2), temperature 54, dose 1, Set2",0.9139
same,norm_rel_fc_protein_3_unmodified,"[5]; protein A0FGR8-2 (ESYT2), temperature 54, dose 3, Set2",0.7618
same,norm_rel_fc_protein_10_unmodified,"[5]; protein A0FGR8-2 (ESYT2), temperature 54, dose 10, Set2",0.587
same,norm_rel_fc_protein_30_unmodified,"[5]; protein A0FGR8-2 (ESYT2), temperature 54, dose 30, Set2",0.5111
same,pec50,"[6]; temperature 45, Set1",5.615
same,norm_rel_fc_protein_1_unmodified,"[6]; temperature 45, dose 1, Set1",0.9697
same,norm_rel_fc_protein_3_unmodified,"[6]; temperature 45, dose 3, Set1",0.761
same,norm_rel_fc_protein_10_unmodified,"[6]; temperature 45, dose 10, Set1",0.63
same,norm_rel_fc_protein_30_unmodified,"[6]; temperature 45, dose 30, Set1",0.6272
same,Hsp70 thermal stability (CETSA),Hsp70,Hsp70 destabilization
same,EC50,EDEM3 [7],1 µM
same,EC50,DNAJC13,1 µM
same,IC50,Hazara virus (HAZV); read-out: Antiviral on primary infection IC50 [µM],10.9 µM
same,EC50,Hazara virus (HAZV); read-out: EC50 Infected cells (primary infection),10.9 µM
same,inhibition at 10 µM,Hazara virus (HAZV); read-out: Viral inhibition on primary infection (%),85%
same,thermal stability change of EDEM3,EDEM3 [8],stabilized

# Source: article PMC7762994 (Viruses, 2020)
